Read-outs that look alike come from different tables or passages of the source.

The subject of one assay is reactive oxygen species. The format is cell-based, mouse. Particulars: for ROS (composite Z-score): normalized score vs mock-treated (DMSO) wells.
Another assay relates to mtOXPHOS transcripts. The format is cell-based, mouse. To be noted: for mitoOX (composite Z-score): normalized score vs mock-treated (DMSO) wells.
The next assay relates to C2C12 myotubes. To be noted: for Viability (composite Z-score): normalized score vs mock-treated (DMSO) wells.
Assay [1] has as its system cellular dehydrogenase activity. To be noted: for MTT (composite Z-score): normalized score vs mock-treated (DMSO) wells.
Another assay concerns nuOXPHOS transcripts. The format is cell-based, mouse. Particulars: for nucOX (composite Z-score): normalized score vs mock-treated (DMSO) wells.
A further assay deals with OXPHOS gene expression. The format is cell-based, mouse. Particulars: for GE-HTS (composite Z-score): normalized score vs mock-treated (DMSO) wells.
The test system of the next assay is cytochrome c. The format is cell-based, mouse. Particulars: for cyt c (composite Z-score): normalized score vs mock-treated (DMSO) wells.
Assay [2] has as its system mitochondrial membrane potential. The format is cell-based, mouse. Particulars: for ΔΨm (composite Z-score): normalized score vs mock-treated (DMSO) wells.
Setting [3] is: composite Z-score vs DMSO, Conc 8.92 μM.
Setting [4] is: composite Z-score vs DMSO, Conc 20 μM.
[5] abbreviates: 20 μM, composite Z-score vs DMSO.
The mark [6] stands for this setting: composite Z-score vs mock-treated (DMSO) wells, Conc 20 μM.

Regarding `CC(CN(C)C)CN1c2ccccc2Sc2ccccc21` (stereo not shown) [trimeprazine], the figures for the ROS in the assay with reactive oxygen species (setting [3]) and in the assay on reactive oxygen species (setting [4]) were 1.314 and −0.430, respectively. Besides, the mitoOX in the assay on mtOXPHOS transcripts (setting [3]) was −0.778; in the assay with mtOXPHOS transcripts (setting [4]), 0.208. The Viability is 0.760 in the assay on C2C12 myotubes (setting [3]) and −1.472 with C2C12 myotubes (setting [4]). Further, the figures for the MTT in assay [1] (setting [3]) and in assay [1] (setting [4]) were −2.221 and −2.227, respectively. Moreover, the nucOX in the assay with nuOXPHOS transcripts (setting [3]) is listed as −0.936; with nuOXPHOS transcripts (setting [4]), −0.130. The results for the GE-HTS with OXPHOS gene expression (setting [3]) and in the assay with OXPHOS gene expression (setting [4]) were −0.942 and −0.013, respectively. In addition, the cyt c with cytochrome c (setting [3]) is −2.786; in the assay on cytochrome c (setting [4]), −0.086. In addition, the results for the ΔΨm in assay [2] (setting [3]) and in assay [2] (setting [4]) were −0.821 and 1.905, respectively.

Regarding `CC(C)c1ccc2c(c1O)CC[C@H]1C3=C(CC[C@]21C)C(=O)OC3` [triptophenolide], in the assay on reactive oxygen species (Conc 20 μM), the “ROS (composite Z-score)” value is reported as −1.072. For the same compound, the “mitoOX (composite Z-score)” value in the assay with mtOXPHOS transcripts (Conc 20 μM) is −0.350. Moreover, the “Viability (composite Z-score)” value with C2C12 myotubes (Conc 20 μM) is listed as −0.599. Besides, the “MTT (composite Z-score)” value in assay [1] (Conc 20 μM) is listed as −1.067. For the same compound, in the assay with nuOXPHOS transcripts (Conc 20 μM), the “nucOX (composite Z-score)” value came out at 0.038. For the same compound, the “GE-HTS (composite Z-score)” value with OXPHOS gene expression (Conc 20 μM) was −0.110. Moreover, the “cyt c (composite Z-score)” value with cytochrome c (Conc 20 μM) is given as −0.593. In addition, the “ΔΨm (composite Z-score)” value in assay [2] (Conc 20 μM) was determined as 1.886.

`CO[C@H]1C[C@H](O[C@H]2[C@H](C)[C@@H](O[C@@H]3O[C@H](C)C[C@H](N(C)C)[C@H]3OC(C)=O)[C@@H](C)C[C@@]3(CO3)C(=O)[C@H](C)[C@@H](OC(C)=O)[C@@H](C)[C@@H](C)OC(=O)[C@@H]2C)O[C@@H](C)[C@@H]1OC(C)=O` [troleandomycin] yielded an ROS in the assay on reactive oxygen species (setting [4]) of 0.099. In the assay with mtOXPHOS transcripts (setting [4]), this compound had a mitoOX of −0.905. Besides, in the assay on C2C12 myotubes (setting [4]), the Viability was −1.520. In assay [1] (setting [4]), this compound had an MTT of −1.250. This compound also returned a nucOX in the assay with nuOXPHOS transcripts (setting [4]) of −1.277. In the assay on OXPHOS gene expression (setting [4]), this compound returned a GE-HTS of −1.234. The cyt c in the assay with cytochrome c (setting [4]) is listed as −0.063. This compound also yielded a ΔΨm in assay [2] (setting [4]) of −0.780.

As for `C=C(C)C1Cc2c(ccc(C(=O)O)c2O)O1` (stereo not shown) [tubaic acid], in the assay with reactive oxygen species (Conc 20 μM), the “ROS (composite Z-score)” value is 0.646. In addition, the “mitoOX (composite Z-score)” value with mtOXPHOS transcripts (Conc 20 μM) came out at 0.070. In addition, the “Viability (composite Z-score)” value with C2C12 myotubes (Conc 20 μM) was −0.569. The “MTT (composite Z-score)” value in assay [1] (Conc 20 μM) is on record as 0.150. Moreover, in the assay with nuOXPHOS transcripts (Conc 20 μM), the “nucOX (composite Z-score)” value is recorded as −1.065. In the assay on OXPHOS gene expression (Conc 20 μM), the “GE-HTS (composite Z-score)” value is reported as −0.746. Also, the “cyt c (composite Z-score)” value in the assay on cytochrome c (Conc 20 μM) stood at 0.089. Besides, the “ΔΨm (composite Z-score)” value in assay [2] (Conc 20 μM) is recorded as −0.489.

For the compound `CC(C)(C)NCC(O)c1ccccc1Cl` (stereo not shown) [tulobuterol], in the assay on reactive oxygen species (setting [5]), the ROS is listed as 0.569. This compound came in with a mitoOX in the assay on mtOXPHOS transcripts (setting [5]) of 0.258. The compound further showed a Viability in the assay with C2C12 myotubes (setting [5]) of −0.239. In addition, the MTT in assay [1] (setting [5]) is on record as −0.706. In the assay with nuOXPHOS transcripts (setting [5]), this compound gave a nucOX of −0.257. In the assay with OXPHOS gene expression (setting [5]), this compound registered a GE-HTS of −0.101. In the assay on cytochrome c (setting [5]), the cyt c is recorded as 0.326. The ΔΨm in assay [2] (setting [5]) is recorded as −1.186.

On to `C[C@H](CCC(=O)O)[C@H]1CC[C@H]2[C@@H]3CC[C@@H]4CCCC[C@]4(C)[C@H]3CC[C@]12C` [ursocholanic acid], for which the ROS in the assay with reactive oxygen species (setting [4]) was 0.978. For the same compound, in the assay on mtOXPHOS transcripts (setting [4]), the mitoOX is −0.657. Also, the Viability with C2C12 myotubes (setting [4]) is listed as 0.050. The compound further yielded an MTT in assay [1] (setting [4]) of −0.246. In the assay with nuOXPHOS transcripts (setting [4]), the nucOX was −0.946. This compound also gave a GE-HTS with OXPHOS gene expression (setting [4]) of −0.920. Further, the cyt c in the assay on cytochrome c (setting [4]) is 1.303. Besides, the ΔΨm in assay [2] (setting [4]) is −1.738.

In the assay with reactive oxygen species (setting [6]), `CCC(C)C(=O)O[C@@H]1C[C@@]2(C)[C@H](c3ccoc3)OC(=O)CC23OC2(C)O[C@]14[C@]1(C)[C@@H](CC(=O)OC)C5(C)CC1(O)[C@](O)(C5OC(=O)C1(C)OC1C)[C@@H](OC(C)=O)[C@]34O2` (stereo partly shown) [utilin] yielded an ROS of 0.482. The compound further came in with a mitoOX in the assay with mtOXPHOS transcripts (setting [6]) of −0.975. Moreover, the Viability in the assay with C2C12 myotubes (setting [6]) was found to be 1.131. Moreover, the MTT in assay [1] (setting [6]) is −1.571. Besides, in the assay with nuOXPHOS transcripts (setting [6]), the nucOX is listed as −0.861. In the assay with OXPHOS gene expression (setting [6]), this compound showed a GE-HTS of −0.939. The compound also returned a cyt c with cytochrome c (setting [6]) of −0.038. In assay [2] (setting [6]), this compound registered a ΔΨm of −0.122.

Consider `COC(=O)/C(=C1/OC(=O)C(c2ccccc2)=C1O)c1ccccc1` [vulpinic acid], for which, in the assay with reactive oxygen species (setting [5]), the ROS was found to be 1.407. In the assay on mtOXPHOS transcripts (setting [5]), this compound yielded a mitoOX of −0.792. In the assay with C2C12 myotubes (setting [5]), this compound had a Viability of −1.120. In assay [1] (setting [5]), this compound had an MTT of 0.403. Also, the nucOX with nuOXPHOS transcripts (setting [5]) is given as 0.168. Besides, the GE-HTS in the assay on OXPHOS gene expression (setting [5]) is on record as −0.152. The compound also gave a cyt c in the assay with cytochrome c (setting [5]) of 1.037. This compound also gave a ΔΨm in assay [2] (setting [5]) of −3.484.

Compound `CC1(C)C=Cc2cc3ccc(=O)oc3cc2O1` [xanthyletin] registered an ROS in the assay on reactive oxygen species (setting [6]) of 0.217. Further, in the assay on mtOXPHOS transcripts (setting [6]), the mitoOX came to 1.085. For the same compound, the Viability in the assay with C2C12 myotubes (setting [6]) was −0.674. In assay [1] (setting [6]), the MTT is reported as −1.741. The same compound registered a nucOX in the assay on nuOXPHOS transcripts (setting [6]) of 0.924. In the assay on OXPHOS gene expression (setting [6]), this compound returned a GE-HTS of 1.029. Also, the cyt c with cytochrome c (setting [6]) is −0.029. Further, the ΔΨm in assay [2] (setting [6]) was −0.220.

In the assay with reactive oxygen species, `COC(=O)[C@@H]1[C@H]2C[C@H]3c4[nH]c5ccccc5c4CCN3C[C@@H]2CC[C@@H]1O` [yohimbine] registered an ROS of 0.159. The same compound returned a mitoOX in the assay with mtOXPHOS transcripts of −0.471. In addition, the Viability in the assay with C2C12 myotubes is reported as −0.860. The MTT in assay [1] is recorded as −1.915. In addition, the nucOX with nuOXPHOS transcripts was 0.169. This compound also returned a GE-HTS in the assay with OXPHOS gene expression of −0.041. Further, the cyt c in the assay with cytochrome c is given as 0.699. The compound further gave a ΔΨm in assay [2] of −1.197.

For the origin of these results see US20090143279A1 (priority 2007, published 2009).
